Measured values as given in US20110318344A1, “Tumor Treatment” (MEDIZINISCHE UNIVERSITAET WIEN, priority 2009, published 2011).
Entries after “also recorded” stand apart in the source; their conditions may differ.

Legend:
MDAH-2774 cells = experiment: Proliferation assay (cell number by CASY cell counter, doubling time); assay type: cell-based, human; conditions: MDAH-2774, HCRP1-silenced vs controls (FIG. 7B)
Method: To maintain the logarithmic phase, cells were split at intervals of 48 hours, along with the determination of the cell number by a CASY cell counter (Innovatis AG, Bielefeld, Germany). This procedure was performed in triplicates over a time-span of 6 days and confirmed by a replication of the whole experiment. From the obtained data doubling times (dt) were calculated and depicted as dt-1.

SK-OV-3 cells = experiment: as above; assay type: cell-based, human
Method: The SK-OV-3 cell line was cultured equally the MDAH-2774 cell line except for the use of McCoy's medium. For applying the Tet-Off inducible system, founder cell lines were generated by transfecting SK-OV-3 cells with the pTet-Off vector (neo^r) encoding a tetracyclin repressible transactivator (tTA). Resistant colonies were selected with 200 μg/ml G418 and characterized by transient transfection with the luciferase reporter plasmid (pTRE-Luc), whose promoter is induced by the transactivator. Luciferase activity in the presence and absence of tetracycline was measured to identify cells with maximal promoter inducibility. […] These two founder cell lines were used to establish cells inducible for HCRP1-specific shRNA constructs (Open Biosystems; #V2HS 21202, #V2HS 21203), which were cloned into the SIN-TREmiR30-PIG vector (purr) downstream of the tetracycline inducible promoter. Thus, presence of tetracycline in the culture medium would suppress shRNA expression, while its withdrawal would induce the knock-down of HCRP1. […]
To maintain the logarithmic phase, cells were split at intervals of 48 hours, along with the determination of the cell number by a CASY cell counter (Innovatis AG, Bielefeld, Germany). […] From the obtained data doubling times (dt) were calculated and depicted as dt-1.

## CS(=O)(=O)CCNCc1ccc(-c2ccc3ncnc(Nc4ccc(OCc5cccc(F)c5)c(Cl)c4)c3c2)o1 [Lapatinib]
MDAH-2774 cells
  dependence of the anti-proliferative effect on HCRP1 expression: independent of HCRP1 expression
SK-OV-3 cells; SKOV-3, HCRP1-silenced vs controls (FIG. 7A)
  dependence of the anti-proliferative effect on HCRP1 expression: independent of HCRP1 expression; also recorded: unaffected by HCRP1 expression
SK-OV-3 cells; SKOV-3 cells, 4 μM Lapatinib, 6 days, HCRP1 status not specified
  doubling time: 37.3 h
